What all share (test): inhibition of tumour cell growth, NCI panel, 48 h
The subject of assay [1] is OVCAR-8 ovarian.
In assay [2] the test system is NCI-H522 lung.
Assay [3] has as its system HCT-15 colon.
Assay [4] relates to NCI-H23 lung.
Assay [5] deals with SF-268 CNS.
Assay [6] relates to SK-MEL-28 melanoma.
The subject of assay [7] is MCF7 breast.
Assay [8] concerns NCI-H226 lung.
Assay [9] concerns LOX IMVI melanoma.
Assay [10] concerns MALME-3M melanoma.

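Assay format: 96-well plates, 48-hour exposure. Here, GI50 denotes the concentration required for 50% inhibition of growth. TGI: total growth inhibition.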 Some results are limits rather than exact numbers.

From PubChem BioAssay (NCI) come the findings set out here.

Turning to `CC(C)OCc1cc(CN2CCN(c3cccc(Cl)c3)CC2)c(O)c2ncccc12`, the GI50 was 0.367 µM in assay [1]; 0.3 µM in [2]; 0.153 µM in [3]; 1.03 µM in assay [4]; 0.629 µM in assay [5]; 0.997 µM in assay [6]. Besides, the GI50 in [7] was 0.377 µM; in assay [8], 1.39 µM; in assay [9], 0.416 µM; in [10], 1.03 µM. In addition, the TGI in assay [1] was 11.6 µM; in [2], 2.26 µM; in assay [3], 17.6 µM; in assay [4], 19 µM; in assay [5] it was 14.7 µM; in assay [6], 14.5 µM. Also, the TGI in assay [7] amounted to 11.5 µM; in assay [8] it was 6.56 µM; in [9], 10.2 µM; in [10] it was 7.33 µM.
As to `COc1cc2c(cc1OCCCCn1c(-c3cccs3)nc3ccccc31)N=C[C@@H]1CCCN1C2=O`, the GI50 in [1] is 2.58 µM; in [2], 1.04 µM; in assay [3] it was 3.19 µM; in assay [4], 2.05 µM; in assay [5] it was 1.8 µM; in [6], 1.53 µM. Besides, the GI50 in [7] was 0.66 µM; in assay [8] it was 2.13 µM; in [9], 0.789 µM; in assay [10], 1.74 µM. The TGI was over 100 µM in [1]; 3.14 µM in assay [2]; 10.5 µM in [3]; 4.4 µM in assay [4]; 5.48 µM in assay [5]; 3.27 µM in assay [6]. In addition, the TGI in assay [7] stood at 12.5 µM; in assay [8], 6.51 µM; in assay [9], 3.93 µM; in [10] it was 3.27 µM.
Regarding `O=C(O)CNCCc1ccccc1`, the TGI in [1], in [2], in assay [3], in assay [4], in assay [5] and in assay [6] was over 100 µM throughout. For the same molecule, the TGI in [7], in assay [8], in assay [9] and in assay [10] was over 100 µM in each case.
`CS(=N)(=O)CCC(N)P(=O)(O)O` (stereo not given): the TGI in [1], in assay [2], in assay [3], in [4], in [5] and in [6] was over 100 µM each time. The TGI in [7], in assay [8], in assay [9] and in assay [10] was over 100 µM in each case.
For the molecule `O=c1[nH]c2ccccc2n2cc3ccccc3c12`, the GI50 in [1] was 5.28 µM; in assay [2], 13.7 µM; in assay [3] it was 3.31 µM; in assay [4], 11.1 µM; in assay [5], 21.6 µM; in [6], 22.6 µM. In addition, the GI50 in assay [7] was 10.5 µM; in assay [8], 2.88 µM; in assay [9] it was 3 µM; in assay [10], 25.1 µM. The TGI in assay [1] is 33.3 µM; in assay [2], 32.3 µM; in assay [3] it was 18.6 µM; in [4], 36.6 µM; in assay [5] it was 87.1 µM; in [6] it was over 100 µM. For the same molecule, the TGI in assay [7] was over 100 µM; in assay [8], 13.8 µM; in [9] it was 12 µM; in [10] it was 46.5 µM.
Consider `NCCCNc1nc2ccc(Cl)cc2c2c(=O)c3cc(F)ccc3sc12`, for which the GI50 in assay [1] was 3.24 µM; in assay [2], 2.26 µM; in assay [3], 1.71 µM; in [4], 5.61 µM; in assay [5], 4.1 µM; in assay [6] it was 10.1 µM. The GI50 was 1.68 µM in assay [7], 8.58 µM in assay [8], 1.57 µM in assay [9] and 6.91 µM in [10]. The TGI in assay [1] was 15.1 µM; in assay [2], 5.67 µM; in [3], 3.48 µM; in assay [4], 21.2 µM; in [5], 18.2 µM; in [6], 24.2 µM. Besides, the TGI stood at 3.42 µM in assay [7], 25.1 µM in assay [8], 2.95 µM in [9] and 23.2 µM in assay [10].
For the molecule `C/C(=N\O)c1cccc(Nc2cc(-c3ccccc3)nc3c(O)cccc23)c1`, the GI50 was 4.24 µM in assay [1]; 1.85 µM in [2]; 2.77 µM in [3]; 4.2 µM in [4]; 4.38 µM in [5]; 10.9 µM in assay [6]. Besides, the GI50 is 0.354 µM in assay [7], 7.37 µM in [8], 3.12 µM in [9] and 5.67 µM in assay [10]. Besides, the TGI was found to be 39 µM in [1]; 9.36 µM in assay [2]; 20.9 µM in assay [3]; 20.2 µM in assay [4]; 39.5 µM in assay [5]; 27.8 µM in [6]. For the same molecule, the TGI was determined as 46.5 µM in assay [7], 37.5 µM in assay [8], 19.7 µM in [9] and 25.4 µM in assay [10].
Regarding `COc1ncc(-c2ccc3nccc(C#CCN4CCN(S(C)(=O)=O)CC4)c3c2)cc1NS(=O)(=O)c1ccc(F)cc1F`, the GI50 in assay [1] was 0.256 µM; in [2] it was 0.154 µM; in assay [3], 0.0614 µM; in [4], 0.287 µM; in [5], 0.0985 µM; in assay [6], 0.0256 µM. Also, the GI50 in [7] is under 0.01 µM; in assay [8], 0.298 µM; in assay [9], 0.0956 µM; in [10], 0.015 µM. Besides, the TGI in assay [1] was determined as 11.7 µM; in assay [2], 1.77 µM; in assay [3], 1.62 µM; in assay [4], 5.9 µM; in [5], 3.93 µM; in assay [6] it was 0.843 µM. In addition, the TGI in assay [7] is 1.79 µM; in assay [8], 2.27 µM; in assay [9] it was 1.41 µM; in assay [10], 0.214 µM.
For `O=[N+]([O-])/C=C/c1cc2ccc3ccccc3c2[nH]1`, the TGI in assay [1] is over 21 µM; in [2], 2.4 µM; in assay [3], over 23.7 µM; in assay [4], 5.07 µM; in assay [5], 4.02 µM; in assay [6], 4.79 µM. In addition, the TGI was 4.29 µM in assay [7], 2.78 µM in [8], 2.42 µM in assay [9] and 3.31 µM in assay [10].
